From US9101642B2, “Ticagrelor co-crystal” (AstraZeneca AB, priority 2011, dated 2015)

Tests used:
[1] = Micro-dissolution in blank Fassif (fasted intestinal fluid without micelle forming components); format: physicochemical; conditions: blank Fassif pH 6.5, 9 mg in 25 ml, mean of n = 2
Experimental: (§1) Micro-dissolution investigations were performed on 9 mg of a sample of Compound A:acetyl salicylic acid co-crystal (prepared as described in Example 4) or Compound A Form II in both 25 ml of (i) Fasted intestinal fluid (Fassif) without micelle forming components (termed blank Fassif) and (ii) of Simulated Gastric Fluid (SGF). The samples were magnetically stirred and aliquots were taken at appropriate time intervals, centrifuged and the supernatant analysed by HPLC and the concentration of Compound A measured as a function of time.
Fasted intestinal fluid without micelle forming components (blank Fassif) media was prepared from 0.348 g NaOH pellets, 3.954 g NaH2PO4.H2O and 6.186 g NaCl in 1 L milli-Q water. The pH was then adjusted to pH 6.5 with 1N NaOH or 1N HCl.

[2] = Micro-dissolution in Simulated Gastric Fluid (SGF); format: physicochemical; conditions: 9 mg in 25 ml, mean of n = 2
Experimental: as §1
Simulated Gastric Fluid (SGF) media was prepared by adding 131.5 ml 1M HCl to 4 g NaCl and the resulting solution made up to 2 Liters with milli-Q water (de-ionised water).

Concentration of Compound A ([1]; time 0 mins): 0 ng/mL
Concentration of Compound A ([1]; time 10 mins): 2950 ng/mL
Concentration of Compound A ([1]; time 20 mins): 3240 ng/mL
Concentration of Compound A ([1]; time 30 mins): 3310 ng/mL
Concentration of Compound A ([1]; time 60 mins): 3510 ng/mL
Concentration of Compound A ([1]; time 240 mins): 3370 ng/mL
Concentration of Compound A ([2]; time 0 mins): 0 ng/mL
Concentration of Compound A ([2]; time 10 mins): 7820 ng/mL
Concentration of Compound A ([2]; time 20 mins): 8100 ng/mL
Concentration of Compound A ([2]; time 30 mins): 8520 ng/mL
Concentration of Compound A ([2]; time 60 mins): 8100 ng/mL
Concentration of Compound A ([2]; time 240 mins): 8450 ng/mL
SMILES: CCCSc1nc(N[C@@H]2C[C@H]2c2ccc(F)c(F)c2)c2nnn([C@@H]3C[C@H](OCCO)[C@@H](O)[C@H]3O)c2n1 (relative stereo) [Compound A Form II, {1S-[1α,2α, 3β(1S*,2R*),5β]}-3-(7-{[2-(3,4-difluorophenyl)cyclopropyl]amino}-5-(propylthio)-3H-1,2,3-triazolo[4,5-d]pyrimidin-3-yl)-5-(2-hydroxyethoxy)cyclopentane-1,2-diol]
